In the assay the target is T1, haematopoietic prostaglandin D synthase (H-PGDS) (Homo sapiens, UniProt O60760).
T1 construct: Full length human H-PGDS cDNA (Invitrogen Ultimate ORF 10H13026) was amplified by PCR; 6-His (N); TEV protease cleavage site (N); made in house; host or cells: E. coli BL21 (DE3*), vector pET22b+
The assay is described as follows: H-PGDS RapidFire high throughput mass spectrometry assay (conversion of PGH2 to PGD2). The assay is classed as biochemical. Conditions: 10 nM H-PGDS, PGH2 formed in situ by COX-2 from arachidonic acid; for IC50: read-out: Potency Range (mean pIC50) (converted). The procedure, abridged:
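RapidFire SPE–MS read-out calculated percent conversion from relative PGD2 and PGF2α (substrate surrogate) levels. Recombinant full-length human H-PGDS (His-tag, E. coli) turned over PGH2, produced in situ at ˜10 μM by human COX-2 (FLAG-tag, Sf9 cells) acting on arachidonic acid.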

The record followed here is US11053234B2 (GlaxoSmithKline Intellectual Property Development Limited, priority 2016, dated 2021).

T1 sequence (O60760 whole entry): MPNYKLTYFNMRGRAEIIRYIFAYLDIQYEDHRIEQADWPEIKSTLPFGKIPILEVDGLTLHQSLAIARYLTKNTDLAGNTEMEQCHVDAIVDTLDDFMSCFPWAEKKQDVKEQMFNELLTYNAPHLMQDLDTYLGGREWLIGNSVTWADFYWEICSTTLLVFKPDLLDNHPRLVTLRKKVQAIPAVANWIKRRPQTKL

Turning to `Cc1ccc(N2CC(NC(=O)[C@H]3C[C@H](Oc4cc(F)cc5scnc45)C3)C2)[n+]([O-])c1` [Example 111, 2-(3-((trans)-3-((6-Fluorobenzo[d]thiazol-4-yl)oxy)cyclobutanecarboxamido)azetidin-1-yl)-5-methylpyridine 1-oxide], the IC50 was 0.1 to 1 µM. Same read-out and setting: the figure for `O=C(Nc1ncc(CO)s1)[C@H]1C[C@H](Oc2cc(F)ccc2OC(F)F)C1` [Example 12, (trans)-3-(2-(Difluoromethoxy)-5-fluorophenoxy)-N-(5-(hydroxymethyl)thiazol-2-yl)cyclobutanecarboxamide] is 0.01 to 0.0794 µM; for `CC(C)(O)[C@H]1C[C@H](NC(=O)[C@H]2C[C@H](Oc3cc(F)cc4cccnc34)C2)C1` [Example 293, (trans)-3-((6-Fluoroquinolin-8-yl)oxy)-N-((trans)-3-(2-hydroxypropan-2-yl)cyclobutyl)cyclobutanecarboxamide] it is 0.1 to 1 µM.

On to `Cc1ccc(N2CC(NC(=O)[C@H]3C[C@H](Oc4cccc5scnc45)C3)C2)nc1` [Example 239, (trans)-3-(Benzo[d]thiazol-4-yloxy)-N-(1-(5-methylpyridin-2-yl)azetidin-3-yl)cyclobutanecarboxamide], for which the IC50 is 0.01 to 0.0794 µM.

Take `CC(C)(O)[C@H]1CC[C@H](NC(=O)[C@H]2C[C@H](Oc3cccn4ccnc34)C2)CC1` [Example 298, (trans)-N-((trans)-4-(2-Hydroxypropan-2-yl)cyclohexyl)-3-(imidazo[1,2-a]pyridin-8-yloxy)cyclobutanecarboxamide]: the IC50 was 0.1 to 1 µM. On the same count and under the same terms, as for `CC(N[C@H]1CC[C@H](NC(=O)N2CC(Oc3cccc4scnc34)C2)CC1)C(F)F` (mixture of isomers) [Example 40, Racemic 3-(Benzo[d]thiazol-4-yloxy)-N-((trans)-4-((1,1-difluoropropan-2-yl)amino)cyclohexyl)azetidine-1-carboxamide], the figure is 0.01 to 0.0794 µM; as for `CC(C)(O)[C@H]1CC[C@H](NC(=O)N2CC(C(F)c3cccc4cccnc34)C2)CC1` (mixture of isomers) [Example 256, Racemic 3-(Fluoro(quinolin-8-yl)methyl)-N-((trans)-4-(2-hydroxypropan-2-yl)cyclohexyl)azetidine-1-carboxamide], 0.1 to 1 µM.

For the compound `N#Cc1cnc(NC(=O)[C@H]2C[C@H](Oc3cccc4cccnc34)C2)s1` [Example 190, (trans)-N-(5-Cyanothiazol-2-yl)-3-(quinolin-8-yloxy)cyclobutanecarboxamide], the IC50 is 0.01 to 0.0794 µM.

As to `COc1ccc(F)cc1O[C@H]1C[C@H](C(=O)NC2CC(=O)Nc3ccccc32)C1` (mixture of isomers) [Example 153, Racemic (trans)-3-(5-Fluoro-2-methoxyphenoxy)-N-(2-oxo-1,2,3,4-tetrahydroquinolin-4-yl)cyclobutanecarboxamide], the IC50 was 0.01 to 0.0794 µM. On to `CC1C(Oc2cccc3scnc23)CN1C(=O)N[C@H]1CC[C@H](C(C)(C)O)CC1` (mixture of isomers) [Example 240, Racemic 3-(Benzo[d]thiazol-4-yloxy)-N-((trans)-4-(2-hydroxypropan-2-yl)cyclohexyl)-2-methylazetidine-1-carboxamide], for which the IC50 was 0.01 to 0.0794 µM. Same read-out and setting: as for `O=C(NC1CN(c2nccc(Cl)n2)C1)[C@H]1C[C@H](Oc2cccc3scnc23)C1` [Example 74, (trans)-3-(Benzo[d]thiazol-4-yloxy)-N-(1-(4-chloropyrimidin-2-yl)azetidin-3-yl)cyclobutanecarboxamide], the figure is 0.01 to 0.0794 µM; as for `C[C@]1(O)CC[C@H](NC(=O)[C@H]2C[C@H](Oc3cccc4cccnc34)C2)CC1` [Example 182, (trans)-N-((trans)-4-Hydroxy-4-methylcyclohexyl)-3-(quinolin-8-yloxy)cyclobutanecarboxamide], 0.1 to 1 µM. As for `CC(=O)c1csc(NC(=O)[C@H]2C[C@H](Oc3ccccc3OC(F)F)C2)n1` [Example 279], the IC50 is 0.01 to 0.0794 µM. Turning to `C=C(C)c1cnc(NC(=O)[C@H]2C[C@H](Oc3cccc4cccnc34)C2)s1` [Example 205, (trans)-N-(5-(Prop-1-en-2-yl)thiazol-2-yl)-3-(quinolin-8-yloxy)cyclobutanecarboxamide], the IC50 was less than 0.01 µM.

On to `O=C(NC1CCCCC1)N1CC(Oc2cccc3scnc23)C1` [Example 64, 3-(Benzo[d]thiazol-4-yloxy)-N-cyclohexylazetidine-1-carboxamide], for which the IC50 was 0.1 to 1 µM.

`O=C(Nc1nccs1)[C@H]1C[C@H](Oc2cccc(Cl)c2)C1` [Example 287, (trans)-3-(3-Chlorophenoxy)-N-(thiazol-2-yl)cyclobutanecarboxamide]: the IC50 is 0.01 to 0.0794 µM.

In the case of `Cc1ccc(N2CC(NC(=O)[C@H]3C[C@H](Oc4cc(F)cc5scnc45)C3)C2)nc1` [Example 231, (trans)-3-((6-Fluorobenzo[d]thiazol-4-yl)oxy)-N-(1-(5-methylpyridin-2-yl)azetidin-3-yl)cyclobutanecarboxamide], the IC50 was 0.01 to 0.0794 µM. Still for that read-out and setting: as for `CC(O)(CO[C@H]1CC[C@H](NC(=O)[C@H]2C[C@H](Oc3cc(F)ccc3OC(F)F)C2)CC1)C1CC1` (mixture of isomers) [Example 11, Racemic (trans)-N-((trans)-4-(2-Cyclopropyl-2-hydroxypropoxy)cyclohexyl)-3-(2-(difluoromethoxy)-5-fluorophenoxy)cyclobutanecarboxamide], the figure is 0.01 to 0.0794 µM. Consider `CC(C)(O)[C@H]1CC[C@H](NC(=O)N2CC(Oc3cccc4cccnc34)C2)CC1` [Example 185, N-((trans)-4-(2-Hydroxypropan-2-yl)cyclohexyl)-3-(quinolin-8-yloxy)azetidine-1-carboxamide], for which the IC50 was 0.01 to 0.0794 µM.

As to `Cn1nccc1NC(=O)[C@H]1C[C@H](Oc2cccc3scnc23)C1` [Example 249, (trans)-3-(Benzo[d]thiazol-4-yloxy)-N-(1-methyl-1H-pyrazol-5-yl)cyclobutanecarboxamide], the IC50 was 0.1 to 1 µM.

As to `CS(=O)(=O)C1CCC(NC(=O)N2CC(Oc3cccc4scnc34)C2)CC1` (stereo not shown) [Example 98, 3-(Benzo[d]thiazol-4-yloxy)-N-(4-(methylsulfonyl)cyclohexyl)azetidine-1-carboxamide], the “Potency Range (mean pIC50)” value is “** (pIC50 = 6.0-7.0)”.

As for `COCCO[C@H]1CC[C@H](NC(=O)N2CC(Oc3cccc4scnc34)C2)CC1` [Example 59, 3-(Benzo[d]thiazol-4-yloxy)-N-((trans)-4-(2-methoxyethoxy)cyclohexyl)azetidine-1-carboxamide], the IC50 is 0.01 to 0.0794 µM.

In the case of `O=C(N[C@H]1CC[C@@H](NC(CO)C(F)(F)F)CC1)[C@H]1C[C@H](Oc2cc(F)cc3scnc23)C1` (mixture of isomers) [Example 125, Racemic (trans)-3-((6-Fluorobenzo[d]thiazol-4-yl)oxy)-N-((cis)-4-((1,1,1-trifluoro-3-hydroxypropan-2-yl)amino)cyclohexyl)cyclobutanecarboxamide], the IC50 was 0.01 to 0.0794 µM. Regarding `O=C(Nc1nccs1)[C@H]1C[C@H](Oc2cccc3cccnc23)C1` [Example 184, trans-3-(8-Quinolinyloxy)-N-1,3-thiazol-2-ylcyclobutanecarboxamide], the IC50 was less than 0.01 µM.

For `CC(C)(O)c1csc(NC(=O)[C@H]2C[C@H](Oc3cccc4cccnc34)C2)n1` [Example 200, (trans)-N-(4-(2-Hydroxypropan-2-yl)thiazol-2-yl)-3-(quinolin-8-yloxy)cyclobutanecarboxamide], the IC50 is 0.01 to 0.0794 µM.
